Literature values as cited in patent publication US5456909A, “Glycoform fractions of recombinant soluble complement receptor 1 (sCR1) having extended half-lives in vivo” (T Cell Sciences, Inc., priority 1992, dated 1995).

System: iC3
Conditions: produced in presence of tunicamycin; cited from earlier work

non-glycosylated form of CR1: non-glycosylated form of CR1 produced in the presence of tunicamycin
binding to iC3: reduced binding to iC3
